Earlier results, collected in patent US20200020419A1, “METHODS OF ANALYZING CELLS” (Flagship Pioneering Innovations VI, LLC., priority 2018, published 2020).

Key:
[1] = test system: mouse “progenitor” cell
[2] = test system: MEF

Cc1ccc(-c2nn(C(C)(C)C)c3ncnc(N)c23)cc1 [PP1]
induction of transition of a mouse progenitor cell into a mouse neuron, known in the literature [1]: known in the literature to be associated with induction of transition of a mouse “progenitor” cell into a mouse neuron

CC(/C=C/C(=O)NO)=C\[C@@H](C)C(=O)c1ccc(N(C)C)cc1 [Trichostatin A]
induction of transition of a MEF into a mouse progenitor cell, known in the literature [2]: known in the literature to be associated with induction of transition of a MEF into a mouse “progenitor” cell

CC(C)(C)n1nc(-c2ccc(Cl)cc2)c2c(N)ncnc21 [PP2]
induction of transition of a mouse progenitor cell into a mouse neuron, known in the literature [1]: known in the literature to be associated with induction of transition of a mouse “progenitor” cell into a mouse neuron
